Tested on: experimentally induced osteoarthritis
Assay: experimentally induced osteoarthritis in guinea pigs (partial medial meniscectomy), joint histology
Type: in vivo, Dunkin Hartley guinea pigs
Conditions: 1, 3 and 10 mg/kg/day orally by gavage, 10 weeks, operated right hind leg joint, blinded pathologist
Procedure: The following description gives evidence on which the invention is based.
Dunkin Hartley guinea pigs(apart from the blank control) were anaesthetised and underwent partial medial meniscectomy in the right hind leg. 3 doses of +mefloquine, (1 mg/kg/day, 3 mg/kg/day and 10 mg/kg/day) were administered orally by gavage to groups of 10 animals as well as a vehicle control. The vehicle was 0.2% methylcellulose and 0.4% Tween 80 in bidistilled water for the mefloquine groups. The administration volume was 2 mL/kg.
The animals were followed for 10 weeks. Terminal blood samples were taken for drug levels. Histology was performed on the joint, which was operated on, and an assessment of the cartilage structure, cell proliferation and loss of proteoglycans was made. The histology was performed by a blinded pathologist.

With `O[C@H](c1cc(C(F)(F)F)nc2c(C(F)(F)F)cccc12)[C@@H]1CCCCN1` [+mefloquine, (+)-erythro-mefloquine] the “degeneration of cartilage (histology: cartilage structure, cell proliferation, loss of proteoglycans)” value was “prevents the degeneration of cartilage”.
